Assay results from patent US20210145764A1, “COMPOSITIONS OF CANNABIDIOL (CBD), AND/OR POLYPHENOLS, AND METHODS FOR THE PREVENTION AND/OR TREATMENT OF SKIN, MUSCLE, NERVE AND INFLAMMATORY DISORDERS, AND BIOLOGICAL FACTORS AND FUNCTIONS IN MAMMALS” (BRIGHAM YOUNG UNIVERSITY, priority 2019, published 2021).
pIC50, pKi: −log10 of the molar value.

What was measured:
Collagen = settings: cited from earlier work
MMPs = settings: cited from earlier work
[1] = target: Estrogen Receptor Alpha (α) (Homo sapiens, UniProt P03372); settings: cited from earlier work; for pKi: read-out: Binds Estrogen Receptor Alpha (α), Ki
Sequence of Estrogen Receptor Alpha (α) (P03372 whole entry): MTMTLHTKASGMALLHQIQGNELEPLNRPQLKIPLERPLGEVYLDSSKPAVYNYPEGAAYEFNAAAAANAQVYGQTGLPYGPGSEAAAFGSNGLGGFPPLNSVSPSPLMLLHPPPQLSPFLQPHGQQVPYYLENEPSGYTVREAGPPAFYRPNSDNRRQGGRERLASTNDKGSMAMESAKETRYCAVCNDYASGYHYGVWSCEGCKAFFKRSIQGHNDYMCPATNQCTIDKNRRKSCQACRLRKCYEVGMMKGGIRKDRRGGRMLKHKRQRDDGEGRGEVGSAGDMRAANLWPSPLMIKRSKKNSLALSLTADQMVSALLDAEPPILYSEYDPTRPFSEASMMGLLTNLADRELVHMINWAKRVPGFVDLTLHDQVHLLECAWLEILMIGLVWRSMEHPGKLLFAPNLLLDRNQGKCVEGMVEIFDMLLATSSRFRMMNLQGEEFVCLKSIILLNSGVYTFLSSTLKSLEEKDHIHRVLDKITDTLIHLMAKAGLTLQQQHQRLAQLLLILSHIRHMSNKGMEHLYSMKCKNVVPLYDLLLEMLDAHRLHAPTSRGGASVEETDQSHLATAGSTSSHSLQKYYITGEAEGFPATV

Elastin = settings: cited from earlier work
NFkappB = settings: cited from earlier work
[2] = target: T1, Estrogen Related Receptor gamma (γ) (Homo sapiens, UniProt P62508); settings: cited from earlier work
T1 sequence (P62508 1-458): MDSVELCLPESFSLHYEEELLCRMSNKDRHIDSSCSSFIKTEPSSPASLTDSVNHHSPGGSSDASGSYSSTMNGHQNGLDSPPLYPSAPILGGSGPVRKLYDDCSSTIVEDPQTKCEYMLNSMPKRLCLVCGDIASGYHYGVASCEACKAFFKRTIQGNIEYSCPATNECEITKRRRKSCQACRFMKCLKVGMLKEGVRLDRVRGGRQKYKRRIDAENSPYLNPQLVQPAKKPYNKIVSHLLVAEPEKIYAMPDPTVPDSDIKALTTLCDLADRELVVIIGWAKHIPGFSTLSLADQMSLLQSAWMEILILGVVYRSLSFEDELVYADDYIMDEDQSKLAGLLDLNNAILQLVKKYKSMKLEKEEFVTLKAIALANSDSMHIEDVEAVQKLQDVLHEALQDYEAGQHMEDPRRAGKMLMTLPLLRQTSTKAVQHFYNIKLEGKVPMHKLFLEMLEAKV

Inflammatory Molecules = settings: cited from earlier work
[3] = target: T2, 5α-Reductase Enzyme (type 1 in skin) (Homo sapiens, UniProt P18405); settings: cited from earlier work
T2 sequence (P18405 1-259): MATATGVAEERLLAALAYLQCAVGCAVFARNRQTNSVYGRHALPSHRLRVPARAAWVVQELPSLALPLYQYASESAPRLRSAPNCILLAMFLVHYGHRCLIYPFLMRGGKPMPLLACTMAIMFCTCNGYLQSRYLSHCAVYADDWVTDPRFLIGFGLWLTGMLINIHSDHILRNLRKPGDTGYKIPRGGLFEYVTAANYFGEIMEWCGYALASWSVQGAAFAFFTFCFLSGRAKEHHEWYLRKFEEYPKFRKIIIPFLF

Growth Factors = settings: cited from earlier work
[4] = target: Estrogen Receptor Beta (β) (Homo sapiens, UniProt Q92731); settings: cited from earlier work; for pKi: read-out: Binds Estrogen Receptor Beta (β), Ki
Sequence of Estrogen Receptor Beta (β) (Q92731 whole entry, species assumed): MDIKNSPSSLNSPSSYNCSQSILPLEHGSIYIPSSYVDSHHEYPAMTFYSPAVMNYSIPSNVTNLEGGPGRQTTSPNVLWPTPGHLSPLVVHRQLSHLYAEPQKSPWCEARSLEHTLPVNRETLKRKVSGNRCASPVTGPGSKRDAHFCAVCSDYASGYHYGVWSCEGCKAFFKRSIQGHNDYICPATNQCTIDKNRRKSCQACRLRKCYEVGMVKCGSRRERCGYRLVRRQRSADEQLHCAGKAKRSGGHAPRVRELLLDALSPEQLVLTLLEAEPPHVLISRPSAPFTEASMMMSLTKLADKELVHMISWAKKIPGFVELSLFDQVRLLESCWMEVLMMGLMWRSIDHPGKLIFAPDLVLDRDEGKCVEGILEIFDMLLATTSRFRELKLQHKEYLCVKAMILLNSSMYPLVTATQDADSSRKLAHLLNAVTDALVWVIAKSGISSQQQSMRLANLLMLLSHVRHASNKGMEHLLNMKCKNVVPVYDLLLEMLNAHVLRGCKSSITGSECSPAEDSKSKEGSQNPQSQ

[5] = cited from earlier work
Nrf2 = target: T3, Nrf2 (Homo sapiens, UniProt Q16236); settings: cited from earlier work
T3 sequence (Q16236 1-605): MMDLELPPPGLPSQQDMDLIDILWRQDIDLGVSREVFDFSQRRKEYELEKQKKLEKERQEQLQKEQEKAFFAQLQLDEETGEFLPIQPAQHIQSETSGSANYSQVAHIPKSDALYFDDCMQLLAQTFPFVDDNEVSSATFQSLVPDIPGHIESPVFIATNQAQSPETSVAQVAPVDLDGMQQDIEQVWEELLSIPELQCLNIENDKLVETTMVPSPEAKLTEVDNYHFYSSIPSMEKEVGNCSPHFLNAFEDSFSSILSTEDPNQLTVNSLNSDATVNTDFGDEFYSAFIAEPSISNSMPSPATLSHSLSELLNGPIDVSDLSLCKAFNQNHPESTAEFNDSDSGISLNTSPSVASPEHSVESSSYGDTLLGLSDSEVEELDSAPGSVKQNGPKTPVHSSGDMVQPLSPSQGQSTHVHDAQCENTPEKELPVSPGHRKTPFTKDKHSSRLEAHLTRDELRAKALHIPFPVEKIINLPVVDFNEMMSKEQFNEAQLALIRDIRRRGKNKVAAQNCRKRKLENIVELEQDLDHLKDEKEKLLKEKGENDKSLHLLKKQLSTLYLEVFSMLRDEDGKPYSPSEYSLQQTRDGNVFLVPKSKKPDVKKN

TIMP1 = settings: cited from earlier work
AP-1 = settings: same concentrations; cited from earlier work
Elastase = settings: cited from earlier work
[6] = tested on: full epidermal/dermal thickness human skin cultures; assay: Histology (hematoxylin/eosin) of human skin cultures; assay type: cell-based; settings: 0.3% CBD; 0.5% equol; combination; 40× magnification
Description: FIG. 14 depicts photomicrographs (40× magnification) of full epidermal/dermal thickness human skin cultures. […] Standard bar=50 microns.
In human skin gene expression analysis full epidermal/dermal thickness human skin cultures were used.
The skin cultures were treated with: (a) transcutol vehicle; (b) 0.3% CBD; and (c) 0.5% equol and 0.3% CDB plus 0.5% equol.

[7] = tested on: full thickness epidermal/dermal human skin cultures; assay: MTT assay cell viability, full thickness skin cultures; assay type: cell-based
Excerpt: Testing CBD and equol at various concentration to determine tissue/cell viability as indicated on the y- and x-axis and figure labels for subsequent human skin gene analysis. Triton X-100 treatment (cytotoxic control). Note: The MTT assay is a colorimetric assay, which has been validated for measuring cell metabolic activity. It is based on the ability of nicotinamide adenine dinucleotide phosphate (NADPH)-dependent cellular oxidoreductase enzymes to reduce the tetrazolium dye MTT to its insoluble formazan, which has a purple color. The absorbance of this colored solution can be quantified by measuring at a certain wavelength (usually between 500 and 600 nm) by a spectrophotometer. The MTT method is one of the most widely used methods to analyze cell proliferation and viability in human skin cells (Triglia et al., 1991).

[8] = tested on: dermal layer (only) of the human skin cultures; assay: MTT assay viability, dermal layer (only); assay type: cell-based
Excerpt: Testing CBD and equol at various concentration to determine tissue/cell viability as indicated on the y- and x-axis and figure labels for subsequent human skin gene analysis. Triton X-100 treatment (cytotoxic control).

[9] = in vivo; cited from earlier work
human skin biomarkers = settings: cited from earlier work
[10] = drug delivery studies; cited from earlier work
[11] = 12 weeks; Equol alone at 0.3%; cited from earlier work
[12] = single topical dose, human skin; cited from earlier work
[13] = cited from earlier work; remark: listed apart in the source
[14] = cited from earlier work; remark: listed apart in the source

In the case of `Oc1ccc(C2COc3cc(O)ccc3C2)cc1` (racemic) [Racemic Equol, equol], the “Stimulates Collagen” value (Collagen) is listed as “Yes”, the “Inhibits MMPs” value (MMPs) is listed as “Yes, to moderate” and the pIC50 ([1]; read-out: Binds Estrogen Receptor Alpha (α), IC50) is listed as 5.82. For the same compound, the “Stimulates Elastin” value (Elastin) was “Yes”, the “Inhibits NFkappB” value (NFkappB) was “Yes, high inhibition” and the “Binds/Activates Estrogen Related Receptor gamma (γ)” value [2] was “Yes”. For the same compound, the “Inhibits Inflammatory Molecules” value (Inflammatory Molecules) was “Yes, high inhibition”, the “Inhibits 5α-Reductase Enzyme (type 1 in skin)” value (“Inhibits 5α-Reductase Enzyme” for short) [3] was “Yes” and the “Stimulates Growth Factors” value (Growth Factors) was “Yes, to moderate”. The pIC50 ([4]; read-out: Binds Estrogen Receptor Beta (β), IC50) was 6.70, the “Oral Metabolism in Humans (pharmacokinetics compared to each other)” value [5] was “Similar” and the “Binds Nrf2/activates other antioxidants” value (Nrf2) was “Yes”. The “Stimulates TIMPI” value (TIMP1) was “Yes”, the “TPA-induced activation of AP-1” value (AP-1) was “dose-dependently attenuated” and the “Inhibits Elastase” value (Elastase) was “Yes”.
In the case of `C=C(C)[C@@H]1CCC(C)=C[C@H]1c1c(O)cc(CCCCC)cc1O` [CBD, cannabidiol], the “epidermal and dermal components and epidermal/dermal borders (histology)” value [6] was “intact and healthy”, the “relative percent cell viability, full thickness cultures (MTT)” value ([7]; FIG. 15) was “around 100%” and the “relative percent cell viability, dermal layer only (MTT)” value ([8]; FIG. 16) was “around 100%”.
For `O=c1c(-c2ccc(O)cc2)coc2cc(O)cc(O)c12` [genistein], the intestinal absorption levels [9] is given as 15-20%.
In the case of `CC1=C(/C=C/C(C)=C/C=C/C(C)=C/C=C/C=C(C)/C=C/C=C(C)/C=C/C2=C(C)C(=O)[C@@H](O)CC2(C)C)C(C)(C)C[C@H](O)C1=O` [astaxanthin, reference compound], the “number of human skin biomarkers/genes significantly altered” value (human skin biomarkers) is given as 6.
For `O=c1c(-c2ccc(O)cc2)coc2cc(O)ccc12` [daidzein, reference compound], the “transcriptional activity of ERR γ” value [2] is given as “did not have this effect”, the intestinal absorption levels [9] is given as 30-40% and the “TPA-induced activation of AP-1” value (AP-1) is given as “did not exert any effect”.
For `Oc1ccc([C@H]2COc3cc(O)ccc3C2)cc1` [S-Equol, S-equol], the “Stimulates Collagen” value (Collagen) is given as “Yes”, the “Inhibits MMPs” value (MMPs) is given as “Yes, to low levels of” and the “affinity for ER alpha” value [1] is given as “low affinity”. The pKi [1] was 7.81, the “Stimulates Elastin” value (Elastin) was “No” and the “Inhibits Inflammatory Molecules” value (Inflammatory Molecules) was “Yes, low inhibition”. The “Inhibits 5α-Reductase Enzyme” value [3] was “No”, the “Stimulates Growth Factors” value (Growth Factors) was “Yes, to low levels” and the “binding to estrogen receptor beta relative to 17β-estradiol” value ([4]; as well as 17β-estradiol) was “approximately ⅕”. The pKi [4] was 8.19, the “Oral Metabolism in Humans (pharmacokinetics compared to each other)” value [5] was “Similar” and the “Stimulates TIMPI” value (TIMP1) was “Yes”.
In the case of `Oc1ccc([C@@H]2COc3cc(O)ccc3C2)cc1` [R-Equol, R-equol], the “Stimulates Collagen” value (Collagen) is listed as “Yes”, the “affinity for ER alpha” value [1] is listed as “weak affinity” and the pKi [1] is listed as 7.56. For the same compound, the “Stimulates Elastin” value (Elastin) was “Yes”, the “Inhibits Inflammatory Molecules” value (Inflammatory Molecules) was “Yes, high inhibition” and the “Inhibits 5α-Reductase Enzyme” value [3] was “Yes”. The “Stimulates Growth Factors” value (Growth Factors) was “Yes, to high levels”, the “affinity for ERβ” value [4] was “weak affinity” and the pKi [4] was 7.81. For the same compound, the “Oral Metabolism in Humans (pharmacokinetics compared to each other)” value [5] was “Similar”, the “Stimulates TIMPI” value (TIMP1) was “No, or at very low” and the “more stable isomer, R-equol vs. S-equol” value [10] was “more stable isomer”.
In the case of `Oc1ccc([C@H]2COc3cc(O)ccc3C2)cc1` (racemic) [Equol, equol], the “number of human skin biomarkers/genes significantly altered” value (human skin biomarkers) is listed as 39, the “epidermal and dermal components and epidermal/dermal borders (histology)” value [6] is listed as “intact and healthy” and the “relative percent cell viability, full thickness cultures (MTT)” value ([7]; human) is listed as “around 100%”. For the same compound, the “Even Skin Tone, Self-Assessment Questionnaire efficacy” value [11] was 70%, the “Frown Lines/Wrinkles, Self-Assessment Questionnaire efficacy” value [11] was 72% and the “Hydration, Self-Assessment Questionnaire efficacy” value [11] was 71%. The “Pore Size, Self-Assessment Questionnaire efficacy” value [11] was 51%, the “Radiance/Brightness, Self-Assessment Questionnaire efficacy” value [11] was 73% and the “Skin Firmness, Self-Assessment Questionnaire efficacy” value [11] was 77%. The “Smoothness, Self-Assessment Questionnaire efficacy” value [11] was 62%, the “Spots/Discoloration, Self-Assessment Questionnaire efficacy” value [11] was 55% and the “transcriptional activity of ERR γ” value [2] was “enhanced”. For the same compound, the “skin penetration profile, peak time” value [12] was “around 8 hours”, the “sustained release after the initial application” value [12] was “up to 28 hours” and the “relative percent cell viability, dermal layer only (MTT)” value ([8]; human) was “around 100%”. The “circulates in the free or unbound form in plasma” value [13] was “approximately 50%”.
In the case of `CCCCCc1cc(O)c2c(c1)OC(C)(C)[C@@H]1CCC(C)=C[C@@H]21` [THC, tetrahydrocannabinol], the “solubility in most organic solvents” value ([14]; organic solvents, particularly lipids and alcohols) is given as “good solubility” and the solubility in water ([14]; water) is given as “low solubility”.
